Test results: the NIST ThermoML archive (doi:10.1021/je5004719)

Experiment: xn = mol fraction of the nth substance listed
Conditions: 101 kPa, Liquid; for speed of sound: Sing-around technique in a fixed-path interferometer; for mass density: Vibrating tube method

Cc1ccccc1Cl [2-chlorotoluene] + Cc1ccccc1C
Conditions | mass density, 298.15 K [kg/m3] | mass density, 303.15 K [kg/m3] | mass density, 308.15 K [kg/m3] | speed of sound, 298.15 K [m/s] | speed of sound, 303.15 K [m/s] | speed of sound, 308.15 K [m/s]
x1 = 0.0872 | 893.06 | 888.78 | 884.5 | 1341.6 | 1321.9 | 1302.1
x1 = 0.1276 | 901.04 | 896.73 | 892.42 | 1339.4 | 1319.8 | 1300.2
x1 = 0.1754 | 910.51 | 906.16 | 901.82 | 1337 | 1317.4 | 1298
x1 = 0.2243 | 920.22 | 915.84 | 911.46 | 1334.4 | 1315 | 1295.6
x1 = 0.2765 | 930.61 | 926.19 | 921.78 | 1331.8 | 1312.4 | 1293.1
x1 = 0.3241 | 940.11 | 935.66 | 931.22 | 1329.4 | 1310.1 | 1290.8
x1 = 0.3762 | 950.54 | 946.05 | 941.57 | 1326.8 | 1307.6 | 1288.4
x1 = 0.4216 | 959.64 | 955.13 | 950.62 | 1324.6 | 1305.4 | 1286.3
x1 = 0.4932 | 974.04 | 969.48 | 964.92 | 1321.2 | 1302.1 | 1283.1
x1 = 0.5243 | 980.31 | 975.73 | 971.15 | 1319.7 | 1300.7 | 1281.8
x1 = 0.5721 | 989.96 | 985.35 | 980.74 | 1317.5 | 1298.6 | 1279.8
x1 = 0.6158 | 998.81 | 994.17 | 989.52 | 1315.5 | 1296.7 | 1278
x1 = 0.6761 | 1011 | 1006.4 | 1001.7 | 1312.7 | 1294.1 | 1275.6
x1 = 0.7245 | 1020.9 | 1016.2 | 1011.4 | 1310.6 | 1292.1 | 1273.7
x1 = 0.7865 | 1033.5 | 1028.8 | 1024 | 1307.8 | 1289.6 | 1271.3
x1 = 0.8254 | 1041.5 | 1036.7 | 1031.9 | 1306.1 | 1288 | 1269.8
x1 = 0.8795 | 1052.5 | 1047.7 | 1042.9 | 1303.8 | 1285.8 | 1267.7
x1 = 0.9192 | 1060.7 | 1055.9 | 1051 | 1302.1 | 1284.1 | 1266.1
